Experimental data from EP4603105A1, “PHARMACEUTICAL COMPOSITION CONTAINING CYCLIC COMPOUND HAVING SELECTIVE KRAS INHIBITORY EFFECT AGAINST HRAS AND NRAS” (CHUGAI SEIYAKU KABUSHIKI KAISHA, priority 2022, dated 2024).
Where a SMILES comes first, the peptide text is derived from it. Bridges are numbered along the chain shown (N, C = ends). [ ]: non-standard residue; d: D form. The star is where a group is joined. hPhe(3-Cl-4-CF3) = N[C@@H](CCc1ccc(C(F)(F)F)c(Cl)c1)C(=O)O; NPrPhe(4-CF3) = CCCN[C@@H](Cc1ccc(C(F)(F)F)cc1)C(=O)O; NMeGly(cPent) = CN[C@H](C(=O)O)C1CCCC1; Pro(4,4-F2) = O=C(O)[C@@H]1CC(F)(F)CN1; Pro(4,4-Me2) = CC1(C)CN[C@H](C(=O)O)C1; NMeD = CN[C@@H](CC(=O)O)C(=O)O; NMeL = CN[C@@H](CC(C)C)C(=O)O; Morpholide = C1CN(*)CCO1; Ac5c = NC1(C(=O)O)CCCC1; Aze = O=C(O)[C@@H]1CCN1; Ac4c = NC1(C(=O)O)CCC1; Sar = CNCC(=O)O

How the values were obtained:
HRAS wild-type protein = HRAS wild-type protein (Homo sapiens, UniProt P01112); test: Binding to HRAS by surface plasmon resonance (SPR), KD and KD ratio to KRAS
Chain of HRAS wild-type protein (P01112 whole entry): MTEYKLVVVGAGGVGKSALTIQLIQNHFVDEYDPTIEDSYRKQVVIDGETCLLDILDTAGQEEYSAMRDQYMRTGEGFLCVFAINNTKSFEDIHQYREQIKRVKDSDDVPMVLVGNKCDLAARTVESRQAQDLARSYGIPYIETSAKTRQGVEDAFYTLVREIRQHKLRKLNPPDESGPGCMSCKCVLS
Method in brief: (§1)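 Biotinylated GDP-bound RAS was captured at about 100–300 RU. Running buffer: HBS pH 7.4, 10 mM MgCl2, 10 µM GDP, 1 mM DTT, 0.01% Tween 20, 4% DMSO.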

[1] = test system: human lung cancer strain NCI-H441; type: cell-based
Method in brief: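 Step one: dispense the test compound in serial DMSO dilutions. Step three: add the reagent and measure […].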

[2] = molecular target: GDP-bound NRAS wild-type protein (Homo sapiens, UniProt P01111); test: Binding to NRAS by surface plasmon resonance (SPR), KD and KD ratio to KRAS
Chain of GDP-bound NRAS wild-type protein (P01111 whole entry): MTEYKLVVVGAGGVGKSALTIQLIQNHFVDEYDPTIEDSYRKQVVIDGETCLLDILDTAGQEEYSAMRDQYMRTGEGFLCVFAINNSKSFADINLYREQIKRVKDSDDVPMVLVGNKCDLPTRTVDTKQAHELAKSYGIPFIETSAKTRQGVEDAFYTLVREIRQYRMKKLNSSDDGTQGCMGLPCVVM
Method in brief: as §1

[3] = ratio of KD for HRAS wild-type protein to KD for KRAS
[4] = ratio of KD for GDP-bound NRAS wild-type protein to KD for KRAS
[5] = ratio of KD value for HRAS wild-type protein to KD value for KRAS (SPR)
[6] = ratio of KD value for GDP-bound NRAS wild-type protein to KD value for KRAS (SPR)
[7] = ratio of the KD value with respect to HRAS wild-type protein to the KD value with respect to KRAS
[8] = ratio of the KD value with respect to GDP-bound NRAS wild-type protein to the KD value with respect to KRAS

Row | SMILES | IC50 [1] [µM] | HRAS /KRAS (HRAS wild-type protein; [3]) | NRAS /KRAS [2, 4] | HRAS /KRAS (HRAS wild-type protein; [5]) | NRAS /KRAS [2, 6] | HRAS /KRAS (HRAS wild-type protein; [7]) | NRAS /KRAS [2, 8]
1 | CCO[C@@H]1C[C@H]2C(=O)NC3(CCC3)C(=O)N(C)[C@@H](C3CCCC3)C(=O)N(C)[C@H](C(=O)N(C)C)CC(=O)N(C)[C@@H](CC)C(=O)N[C@@H]([C@@H](C)CC)C(=O)N(C)CC(=O)N(C)[C@H]3CCCCCN(C3=O)[C@@H](Cc3ccc(F)cc3C)C(=O)N(C)CC(=O)N[C@@H](CCc3cc(F)c(C(F)(F)F)c(F)c3)C(=O)N2C1 [PP0911] | 0.0102 | B (a compound having 3 or more and less than 10 is denoted as B) | B (a compound having 3 or more and less than 10 is denoted as B) |  |  |  | 
2 | CCO[C@@H]1C[C@H]2C(=O)NC3(CC(F)(F)C3)C(=O)N(C)[C@@H](C3CCCC3)C(=O)N3CCC[C@@H]3CC(=O)N(C)[C@@H](CC)C(=O)N[C@@H]([C@@H](C)CC)C(=O)N(C)CC(=O)N(C)[C@H]3C/C=C\CCN(C3=O)[C@@H](Cc3ccc(C(F)(F)F)cc3)C(=O)N(C)CC(=O)N[C@@H](CCc3cc(F)c(C(F)(F)F)c(F)c3)C(=O)N2C1 [PP1609] | 0.037 |  |  | A (a compound having 10 or more and less than 20 is denoted as A) | A (a compound having 10 or more and less than 20 is denoted as A) |  | 
3 | CCCN1C(=O)CN(C)C(=O)CN(C)C(=O)[C@H]([C@@H](C)CC)NC(=O)[C@H](CC(C)C)N(C)C(=O)C[C@@H](C(=O)N2CCOCC2)N(C)C(=O)[C@H](C2CCCC2)N(C)C(=O)C2(CCCC2)NC(=O)[C@@H]2CC(C)(C)CN2C(=O)[C@H](CCc2ccc(C(F)(F)F)c(Cl)c2)NC(=O)CN(C)C(=O)[C@@H]1Cc1ccc(C(F)(F)F)cc1 [PP0446] ([NMeL]I[Sar][Sar][NPrPhe(4-CF3)][Sar][hPhe(3-Cl-4-CF3)][Pro(4,4-Me2)][Ac5c][NMeGly(cPent)][NMeD]-Morpholide; lactam N-11) | 0.0016 |  |  |  |  | C (A compound having a KD ratio of 0.1 or more and less than 3 is denoted as C) | B (a compound having 3 or more and less than 10 is denoted as B)
4 | CCC[C@H]1C(=O)N[C@@H]([C@@H](C)CC)C(=O)N(C2CC2)CC(=O)N(C)[C@H]2C/C=C\CCN(C2=O)[C@@H](Cc2ccc(C)cc2)C(=O)N(C)CC(=O)N[C@@H](CCc2cc(F)c(Cl)c(OC)c2)C(=O)N2C[C@H](OCC)C[C@H]2C(=O)NC2(CC(C)(C)C2)C(=O)N(C)[C@@H](C2CCCC2)C(=O)N(C)[C@H](C(=O)N(C)C)CC(=O)N1C [PP2871] | 0.0284 | A (a compound having 10 or more and less than 20 is denoted as A) | A (a compound having 10 or more and less than 20 is denoted as A) |  |  |  | 
5 | CCO[C@H]1CCN2C(=O)[C@H](CCc3cc(F)c(C(F)(F)F)c(F)c3)NC(=O)CN(C)C(=O)[C@H](Cc3ccc(C(F)(F)F)cc3)N3CCCC[C@@H](C3=O)N(C)C(=O)CN(C)C(=O)[C@H]([C@@H](C)CC)NC(=O)[C@H](CC(C)C)N(C)C(=O)C[C@@H](C(=O)N3CCOCC3)N(C)C(=O)[C@H](C3CCCC3)N(C)C(=O)C3(CCC3)NC(=O)[C@H]12 [PP1076] | 0.0046 | B (a compound having 3 or more and less than 10 is denoted as B) | B (a compound having 3 or more and less than 10 is denoted as B) |  |  |  | 
6 | CCO[C@@H]1C[C@H]2C(=O)NC3(CCC3)C(=O)N(C)[C@@H](C3CCCC3)C(=O)N(CC)[C@H](C(=O)N3CCOCC3)CC(=O)N(C)[C@@H](CC(C)C)C(=O)N[C@@H]([C@@H](C)CC)C(=O)N(C)CC(=O)N(C)[C@H]3CCCCN(C3=O)[C@@H](Cc3ccc(C(F)(F)F)cc3)C(=O)N(C)CC(=O)N[C@@H](CCc3cc(F)c(C(F)(F)F)c(F)c3)C(=O)N2C1 [PP0648] | 0.0208 |  |  |  |  | B (a compound having 3 or more and less than 10 is denoted as B) | B (a compound having 3 or more and less than 10 is denoted as B)
7 | CCCN1C(=O)[C@@H]2CCN2C(=O)CN(C)C(=O)[C@H]([C@@H](C)CC)NC(=O)[C@H](CC(C)C)N(C)C(=O)C[C@@H](C(=O)N(C)C)N(C)C(=O)[C@H](C2CCCC2)N(C)C(=O)C2(CCC2)NC(=O)[C@@H]2CC(F)(F)CN2C(=O)[C@H](CCc2ccc(C(F)(F)F)c(Cl)c2)NC(=O)CN(C)C(=O)[C@@H]1Cc1ccc(C(F)(F)F)cc1 [PP0443] ([NMeL]I[Sar][Aze][NPrPhe(4-CF3)][Sar][hPhe(3-Cl-4-CF3)][Pro(4,4-F2)][Ac4c][NMeGly(cPent)][NMeD]-NMe2; lactam N-11) | 0.0009 |  |  |  |  | C (A compound having a KD ratio of 0.1 or more and less than 3 is denoted as C) | C (A compound having a KD ratio of 0.1 or more and less than 3 is denoted as C)
8 | CCO[C@@H]1C[C@H]2C(=O)NC3(CCC3)C(=O)N(C)[C@@H](C3CCCC3)C(=O)N(C)[C@H](C(=O)N(C)C)CC(=O)N(C)[C@@H](CC3CCCCC3)C(=O)N[C@@H]([C@@H](C)CC)C(=O)N(C)CC(=O)N(C)[C@H]3C/C=C\CCN(C3=O)[C@@H](Cc3ccc(C(F)(F)F)cc3)C(=O)N(C)CC(=O)N[C@@H](CCc3cc(F)c(C(F)(F)F)c(F)c3)C(=O)N2C1 [PP1125] | 0.015 | A (a compound having 10 or more and less than 20 is denoted as A) | A (a compound having 10 or more and less than 20 is denoted as A) |  |  |  | 
9 | CC[C@H](C)[C@@H]1NC(=O)[C@H](CC2CC2)N(C)C(=O)C[C@@H](C(=O)N2CCCC2)N(C)C(=O)[C@H](C2CCCC2)N(C)C(=O)C2(CCC2)NC(=O)[C@@H]2C[C@H](C)CN2C(=O)[C@H](CCc2cc(F)c(C(F)(F)F)c(F)c2)NC(=O)CN(C)C(=O)[C@H](Cc2ccc(C(F)(F)F)cc2)N2CC/C=C\C[C@@H](C2=O)N(C)C(=O)CN(C)C1=O [PP1510] | 0.0345 |  |  | A (a compound having 10 or more and less than 20 is denoted as A) | AA (a compound having 20 or more is denoted as AA) |  | 

More lines, main results first:

Row | IC50 [1] [µM] | SMILES | HRAS /KRAS (HRAS wild-type protein; [3]) | NRAS /KRAS [2, 4] | HRAS /KRAS (HRAS wild-type protein; [5]) | NRAS /KRAS [2, 6] | HRAS /KRAS (HRAS wild-type protein; [7]) | NRAS /KRAS [2, 8]
10 | 0.0071 | CCO[C@@H]1C[C@H]2C(=O)NC3(CC(C)(C)C3)C(=O)N(C)[C@@H](C(CC)CC)C(=O)N(C)[C@H](C(=O)N(C)C)CC(=O)N(C)[C@H]3CCCC/C=C/c4ccc(cc4)C[C@@H](C(=O)N(C)CC(=O)N[C@@H](CCc4cc(F)c(C(F)(F)F)c(F)c4)C(=O)N2C1)N1CC/C=C\C[C@@H](C1=O)N(C)C(=O)CN(C)C(=O)[C@H]([C@@H](C)CC)NC3=O [PP3044] | A (a compound having 10 or more and less than 20 is denoted as A) | AA (a compound having 20 or more is denoted as AA) |  |  |  | 
11 | 0.0281 | CCO[C@@H]1C[C@H]2C(=O)NC3(CC(C)(C)C3)C(=O)N(C)[C@@H](C(CC)CC)C(=O)N(C)C(CC)CC(=O)N(C)[C@@H](CC)C(=O)N[C@@H]([C@@H](C)CC)C(=O)N(C)CC(=O)N(C)[C@H]3C/C=C\CCN(C3=O)[C@@H](Cc3ccc(C(F)(F)F)cc3)C(=O)N(C)CC(=O)N[C@@H](CCc3cc(F)c(C(F)(F)F)c(F)c3)C(=O)N2C1 (stereo partly drawn) [PP1622] |  |  | A (a compound having 10 or more and less than 20 is denoted as A) | A (a compound having 10 or more and less than 20 is denoted as A) |  | 
12 | 0.106 | CCC[C@@H]1C[C@H]2C(=O)NC3(CCCC3)C(=O)N(C)[C@@H](C3CCCC3)C(=O)N(C)[C@H](C(=O)N(C)CC)CC(=O)N(C)[C@@H](C)C(=O)N[C@@H]([C@@H](C)CC)C(=O)N(C)CC(=O)N(C)[C@H]3C/C=C\CCN(C3=O)[C@@H](Cc3ccc(C(F)(F)F)cc3)C(=O)N(C)CC(=O)N[C@@H](CCc3cc(F)c(C(F)(F)F)c(F)c3)C(=O)N2C1 [PP2272] |  |  |  |  | A (a compound having 10 or more and less than 20 is denoted as A) | AA (a compound having 20 or more is denoted as AA)
13 | 0.0028 | CCC[C@H]1C(=O)N[C@@H]([C@@H](C)CC)C(=O)N(C)CC(=O)N(C)[C@H]2C/C=C\CCN(C2=O)[C@@H](Cc2ccc(C(F)(F)F)cc2)C(=O)N(C)CC(=O)N[C@@H](CCc2cc(F)c(C(F)(F)F)c(F)c2)C(=O)N2C[C@H](OCC)C[C@H]2C(=O)NC2(CC(C)(C)C2)C(=O)N(C)[C@@H](C2CCCC2)C(=O)N(C)[C@H](C(=O)N(C)CC)CC(=O)N1C [PP1646] |  |  | A (a compound having 10 or more and less than 20 is denoted as A) | A (a compound having 10 or more and less than 20 is denoted as A) |  | 
14 | 0.0053 | CCO[C@@H]1C[C@H]2C(=O)NC3(CC(C)(C)C3)C(=O)N(C)[C@@H](C3CCCC3)C(=O)N(C)[C@H](C(=O)N3CCCC3)CC(=O)N(C)[C@H]3CCCCCCc4ccc(cc4)C[C@@H](C(=O)N(C)CC(=O)N[C@@H](CCc4ccc(C(F)(F)F)c(OC)c4)C(=O)N2C1)N1CC/C=C\C[C@@H](C1=O)N(C)C(=O)CN(C)C(=O)[C@H]([C@@H](C)CC)NC3=O [PP3034] | B (a compound having 3 or more and less than 10 is denoted as B) | A (a compound having 10 or more and less than 20 is denoted as A) |  |  |  | 
15 | 0.0169 | CCO[C@@H]1C[C@H]2C(=O)NC3(CC(C)(C)C3)C(=O)N(C)[C@@H](C(CC)CC)C(=O)N(C)[C@H](C(=O)N(C)C)CC(=O)N(C)[C@@H](CC(C)C)C(=O)N[C@@H]([C@@H](C)CC)C(=O)N(C)CC(=O)N(C)[C@H]3C/C=C\CCN(C3=O)[C@@H](Cc3ccc(C)cc3)C(=O)N(C)CC(=O)N[C@@H](CCc3ccc(C(F)(F)F)c(OC)c3)C(=O)N2C1 [PP2168] |  |  |  |  | A (a compound having 10 or more and less than 20 is denoted as A) | A (a compound having 10 or more and less than 20 is denoted as A)
